Source: patent publication US6541463B1, “Inhibitors of type 5 and type 3 17β-hydroxysteroid dehydrogenase and methods for their use” (Endorecherche, Inc., priority 1998, dated 2003)

Key:
[1] = In vivo assay of oral bioavailability (plasma AUC 0-7 h by LCMS/MS); set-up: species or system male Sprague Dawley rats; settings: for AUC(0-t): male, Sprague-Dawley [Crl:CD(SD)Br]
Experimental: In column 1, the oral bioavailability of preferred type 5 inhibitors, expressed in ng/mL.h, was determined as described below in “Other Tests, A-In Vivo Assays of Bioavailability of Human Type 5 17β-HSD Inhibitors”. Higher number are desirable. ND means that a determination was not done.
The measurements at various time intervals were for values greater than or equal to 1.0 ng/mL and less than or equal to 50 ng/mL.
Male Sprague-Dawley rats [Crl:CD(SD)Br] weighing 275-350 g were obtained from Charles-River Canada Inc. and housed 2 per cage during the acclimation period and individually during the study period. The animals were maintained under a regimen of 12 hours light: 12 hours dark (lights on at 08:00). Animals received certified Rodent feed (Lab Diet #5002, pellets) and tap water ad libitum. Rats were fasted (access to water only) starting on the evening prior to dosing.
Each compound to be tested was administered to three animals as a suspension in 0.4% methylcellulose by oral gavage at a dose of 0.5 mg/rat (1.0 ml/rat). Four to eight new compounds were tested each day and one group of animals received megestrol acetate (MGA) under the same conditions on each dosing day as a reference. […] Blood samples were immediately transferred into a refrigerated 0.75 ml Microtainer containing EDTA and kept in an ice-water bath until centrifugation at 3000 rpm for 10 minutes. Plasma separation was performed rapidly (less than 50 minutes) after blood collection. One aliquot of 0.25 ml of plasma was then transferred into a borosilicate tube (13×100) and was rapidly frozen on dry-ice. Plasma samples were kept at −80° C. until measurement of plasma concentration of the inhibitor(s) by LCMS/MS.
Aliquots of rat plasma (0.250 mL) were transferred to 13×100 mm borosilicate tubes. Water (1.0 mL) and internal standard solution (0.1 mL) were added to each sample and vortexed for 2 min. A mixture of N-butyl chloride and acetone (v:v, 7:3) (3 mL) was added to each sample and vortexed for 2 min. This step was repeated and the combined organic phases were evaporated to dryness under nitrogen in a Turbo Vap evaporator at 35° C. The residue was reconstituted with 1 mL of methanol and evaporated in a Turbo Vap evaporator at 35° C. The final extract was reconstituted into 0.1 mL of methanol/water (v:v, 75:25) and then transferred into a conical vial for injection into the mass spectrometer.
The assay procedure was performed by analyzing, in duplicate, rat plasma samples spiked at six different Type 5 inhibitor concentrations (1, 2, 5, 10, 20 and 50 ng/mL). The lower limit of quantitation (LOQ) was established at 1.0 ng/mL. Values lower than 1.0 ng/mL were expressed as below limit of quantification (BLQ). […]

ZR-75-1 cells [2] = assay: Antiestrogenic activity: inhibition of E2-induced proliferation of ZR-75-1 cells; format: cell-based, human; set-up: ZR-75-1 Activity, E2 / ZR-75-1 Activity E2 E^−6: unit not given here; settings: for ZR-75-1 Activity E2 E^−6: with E2, E^−6
Experimental: The manner in which the inhibition is determined is described in “Other Tests; C-Estrogenic/Antiestrogenic Activity”. Lower numbers are desirable. ND means that a determination was not done.
(§1) Estrogenic/antiestrogenic activity of some preferred compounds has been measured using the […] human breast cancer cell line as described in more detail below.
(§2) All media and medium supplments were purchased from Sigma. Cells were subcultured weekly by treatment with a pancreatic solution containing EDTA (0.2 g/L). The cell cultures used for the experiments herein describied were between passages 89 and 94.
(§3) Cells in their logarithmic growth phase were harvested, briefly centrifuged, and resuspended in RPMI 1640. Cells were then plated in triplicate in LIMBRO 24-well plastic culture plates (2 cm^2/well). Since plating density influences the effect of hormones on ZR-75-1 cell growth, cells were plated at a density of 1×10^4 cells/well. […] Control cultures received the ethanol vehicle only. Cells were then allowed to grow at 37° C. for 10 days with medium changes (of identical composition) every 2 days.
(§4) After E2 and/or antiestrogen treatment, cells were harvested by addition of 0.5 ml of a pancreatin solution (Sigma) for 5-10 min at 37° C. before addition of 0.5 mnl of RPMI 1640 containing 5% dextran coated […] bovine serum in order to block enzymatic action. Cell number (0.10 ml aliquot) was determined by measurement of DNA content as previously described (Simard et al., Endocrinology 126: 3223-3231,1990).

ZR-75-1 cells [3] = assay: Estrogenic activity: stimulation of proliferation of ZR-75-1 cells; format: cell-based, human
Experimental: […] The manner in which the stimulation is determined is described in “Other Tests; C-Estrogenic/Antiestrogenic activity” Lower numbers are desirable. ND means that a determination was not done.
as §1, §2, §3, §4

[4] = 0.5 mg, Table 4′, oral, rat plasma
[5] = Table 4′, E2-induced proliferation, 3E^−8

SMILES | AUC(0-t) [1, 4] [ng·h/mL] | ZR-75-1 Activity, E2 3E^−8 (ZR-75-1 cells [2]; [5]) | ZR-75-1 Activity, Basal E^−6 (ZR-75-1 cells [3]; Table 4′) | ZR-75-1 Activity, Basal E^−8 (ZR-75-1 cells [3]; Table 4′) [%] | other results
COc1ccc2c(c1)C(=O)CC1C2CC[C@@]2(C)C1CC[C@@]21CCC(C)(C)C(=O)O1 (some centres unmarked) [EM-1394] | 1760 ± 69 | – | – | – | –
CC1(C)CC[C@@]2(CCC3C4CCc5cc(C(=O)O)ccc5C4CC[C@@]32C)OC1=O (stereo partly drawn) [EM-1401, 3-Carboxy-1,3,5(10)-estratrien-17(R)-spiro-2′-(5′,5′-dimethyl-6′-oxo)tetrahydropyran] | 1630 ± 181 | – | – | – | –
CC1CCC2(CCC3C4CCc5ccccc5C4CCC32C)OC1=O (centres unmarked) [EM-1025] | – | 0% | 201% | 20 | –
CC1(C)CCC2(CCC3C4CCc5c(cc(Cl)c(O)c5Cl)C4CCC32C)OC1=O (centres unmarked) [EM-1391-CS] | 28 ± 3.4 | – | – | – | –
COC(=O)C1CCC2(CCC3C4CCc5cc(O)ccc5C4CCC32C)OC1=O [PB-132-146, 3-Hydroxy-1,3,5(10)-estratrien-17(R)-2′-(5′-methoxycarbonyl-6′-oxo)tetrahydropyran] | – | 0% | 91% | 0 | –
CCC[C@@H]1CC2C3C=CC4=CC(=O)CC[C@]4(C)C3CC[C@]2(C)C1=O (some centres unmarked) [EM-1097] | – | – | – | – | AUC(0-t) ([1]; rat, plasma, po, 0.5 mg/rat): 122 ± 5.7 ng·h/mL; ZR-75-1 Activity, E2 3E^−8 (ZR-75-1 cells [2]; with E2, 3E^−8): 0; ZR-75-1 Activity E2 E^−6 (ZR-75-1 cells [2]): 0; ZR-75-1 Activity, Basal E^−6 (ZR-75-1 cells [3]): 10; ZR-75-1 Activity, Basal E^−8 (ZR-75-1 cells [3]): −8
CC1(C)CCC2(CCC3C4CCc5cc(OS(C)(=O)=O)ccc5C4CCC32C)OC1=O (centres unmarked) [EM-1365-CS] | – | −17% | 0% | −17 | –
CCCC(=O)OC1(C(C)=O)CCC2C3C=C(C)C4=CC(=O)CC(C)C4(C)C3CCC21C (centres unmarked) [CS-245] | – | – | – | – | AUC(0-t) ([1]; rat, plasma, po, 0.5 mg): 18 ± 5 ng·h/mL
CCOc1ccc2c(c1)CCC1C2CC[C@@]2(C)C1CC[C@@]21CCC(C)(C)C(=O)O1 (stereo partly drawn) [EM-1369, 3-Ethoxy-1,3,5(10)-estratrien-17(R)-spiro-2′-(5′,5′-dimethyl-6′-oxo)-tetrahydropyran] | – | +18% | +84% | 0 | –
COc1cc2c(cc1C(F)(F)F)C1CCC3(C)C(CCC34CCC(C)(C)C(=O)O4)C1CC2 [EM-1409, 3-Methoxy-2-trifluoromethyl-1,3,5(10)-estratrien-17(R)-spiro-2′-(5′,5′-dimethyl-6′-oxo)tetrahydropyran] | 36 ± 13 | – | – | – | –
CC1(C)CCC2(CCC3C4CCc5c(cc(Cl)c(OS(C)(=O)=O)c5Cl)C4CCC32C)OC1=O (centres unmarked) [EM-1392-CS] | 305 ± 49 | – | – | – | –
COC(=O)CCCC(=O)O[C@]1(C(C)=O)CC[C@H]2[C@@H]3C=C(C)C4=CC(=O)CC[C@]4(C)[C@H]3CC[C@@]21C [EM-1007, 6-Methyl-4,6-pregnadien-17α-ol-3,20-dione 4′-Carbomethoxybutyrate] | – | – | – | – | Oral Bioavailability AUC 0-7h ([1]; AUC 0-7h): 16.4 ng·h/mL; ZR-75-1 Activity, E2 (ZR-75-1 cells [2]; E2): −52; ZR-75-1 Activity, E2 (ZR-75-1 cells [2]; E2, E^−8): −41; ZR-75-1 Activity, Basal (ZR-75-1 cells [3]; E^−6, in %): 0; ZR-75-1 Activity, Basal (ZR-75-1 cells [3]; E^−8, in %): −8
CC12CCC3c4ccc(O)cc4CCC3C1CCC21CC=CC(=O)O1 [PB-132-140, 3-hydroxy-1,3,5(10)-estratrien-17(R)-spiro-2′-(4′,5′-dihydro-6′-oxo)pyran] | – | 0% | 71% | 15 | –
CN(C)CCOc1ccc2c(c1)CCC1C2CCC2(C)C1CCC21CCC(C)(C)C(=O)O1 (centres unmarked) [EM-1389-CS] | 169 ± 2 | – | – | – | –
C[C@]12CCC3c4ccc(O)cc4CCC3C1CC[C@@]21CCCC(=O)O1 (stereo partly drawn) [EM-919, 1,3,5(10)-estratrien-3-ol-17(R)-spiro-2′(6′-oxo)tetrahydropyran] | 4.8 ± 0.8 | −18% | −20% | 0 | –
CCS(=O)(=O)Oc1ccc2c(c1)CCC1C2CCC2(C)C1CCC21CCC(C)(C)C(=O)O1 (centres unmarked) [EM-1364-CS] | – | −12% | +36% | 0 | –
COc1c(Br)cc2c(c1Br)CCC1C2CCC2(C)C1CCC21CCC(C)(C)C(=O)O1 (centres unmarked) [EM-1385-CS] | 301 ± 36 | – | – | – | –
CC(=O)O[C@]1(C(=O)N(C)C)CCC2C3C=C(C)C4=CC(=O)CC[C@]4(C)C3CC[C@@]21C (some centres unmarked) [EM-1159] | – | – | – | – | AUC(0-t) ([1]; rat, plasma, po, 0.5 mg): 452 ± 170 ng·h/mL
CC(=O)O[C@]1(C(C)=O)CCC2C3C=C(C)C4=CC(=O)CC[C@]4(C)C3CC[C@@]21C (some centres unmarked) [megestrol acetate, reference compound] | – | – | – | – | AUC(0-t) ([1]; rat, plasma, po, 0.5 mg): 92 ± 17 ng·h/mL; ZR-75-1 Activity, E2 (ZR-75-1 cells [2]; E2): −81; ZR-75-1 Activity, E2 (ZR-75-1 cells [2]; E2, E^−8): −70
COc1ccc(CC(=O)O[C@]2(C(C)=O)CCC3C4C=C(C)C5=CC(=O)C=C[C@]5(C)C4CC[C@@]32C)cc1 (some centres unmarked) [EM-1291] | – | – | – | – | AUC(0-t) ([1]; rat, plasma, po, 0.5 mg): 94 ± 23 ng·h/mL
CC1CC(=O)OC2(CCC3C4CCc5cc(O)ccc5C4CCC32C)C1 [PB-132-142, 3-Hydroxy-1,3,5(10)-estratrien-17(R)-spiro-2′-(4′-methyl-6′-oxo)tetrahydropyran] | – | 0% | 91% | 38 | –
COc1ccc2c(c1)CCC1C2CCC2(C)C1CCC21CCC(C)(C)C(=O)O1 (centres unmarked) [EM-1370] | – | 0% | +24% | 0 | –
CC1(C)CC[C@@]2(CCC3C4CCc5cc(F)ccc5C4CC[C@@]32C)OC1=O (some centres unmarked) [EM-1157-CS] | 40 ± 7 | – | – | – | –
COCCOc1ccc2c(c1)CCC1C2CCC2(C)C1CCC21CCC(C)(C)C(=O)O1 [EM-1368-CS, 3-Methoxyethoxy-1,3,5(10)-estratrien-17(R)-spiro-2′-(5′,5′-dimethyl-6′-oxo)-tetrahydropyran] | – | 0% | +15% | 0 | –
CC12C=CC(=O)C=C1C=CC1C2CCC2(C)C(=O)C3(CCCCC3)CC12 (centres unmarked) [CS-204] | – | – | – | – | ZR-75-1 Activity, E2 3E^−8 (ZR-75-1 cells [2]; with E2, 3E^−8): 0; ZR-75-1 Activity E2 E^−6 (ZR-75-1 cells [2]): −25; ZR-75-1 Activity, Basal E^−6 (ZR-75-1 cells [3]): 0; ZR-75-1 Activity, Basal E^−8 (ZR-75-1 cells [3]): 0
CC1(C)CCC2(CCC3C4CCc5cc(O)c(C#N)cc5C4CCC32C)OC1=O (centres unmarked) [EM-01645] | 52 ± 3 | – | – | – | –
CCCCN(C)C(=O)[C@@]1(OC(C)=O)CCC2C3C=C(C)C4=CC(=O)CC[C@]4(C)C3CC[C@@]21C (some centres unmarked) [EM-1165] | – | – | – | – | AUC(0-t) ([1]; rat, plasma, po, 0.5 mg): 24 ± 3.6 ng·h/mL
C=CCC1CCC2(CCC3C4CCc5cc(O)ccc5C4CCC32C)OC1=O [PB-132-152, 3-Hydroxy-1,3,5(10)-estratrien-17(R)-2′-(5′-allyl-6′-oxo)tetrahydropyran] | – | −11% | 90% | 39 | –
CC1CCC2(CCC3C4CCc5cc(O)c([N+](=O)[O-])cc5C4CCC32C)OC1=O [EM-1126, 2-Nitro-1,3,5(10)-estratrien-3-ol-17(R)-spiro-2′-(5′-methyl-6′-oxo)tetrahydropyran] | – | 0% | −89% | 0 | –
CC1(C)CCC2(CCC3C4CCc5cc(OCCN6CCCCC6)ccc5C4CCC32C)OC1=O [EM-1390-CS, 3-(N-piperidyl-ethyl)-1,3,5(10)-estratrien-17(R)-spiro-2′-(5′,5′-dimethyl-6′-oxo)-tetrahydropyran] | 401 ± 5 | – | – | – | –
